Measurements taken from patent US20120196858A1, “METHOD OF PROMOTING APOPTOSIS AND INHIBITING METASTASIS” (Poniard Pharmaceuticals ,Inc., priority 2009, published 2012).

Experiments:
4T1 cells [1] = assay: Millicell chamber motility assay (fibronectin, serum chemotaxis); type: cell-based, murine; conditions: Mus musculus, 4 h, read-out: maximal inhibition of cell movement
Procedure: (§1) Cell migration assays: Serum-stimulated chemotaxis using Millicell (12 mm diameter with 8 μm pores; Millipore) chambers were performed as described previously^49. Both sides of membrane were coated with fibronectin (10 μg/ml) and chemotaxis was stimulated by addition of 10% FBS to the lower chamber. Data points represent cell counts (9 fields) from three migration chambers from at least two independent experiments. For scratch-wound closure motility assays, cells were seeded onto fibronectin-coated (10 μg/ml) glass bottom 12 well plates (MatTek) and serum starved (0.5% FBS) for 16 h. Cells were wounded with a pipette tip, washed with phosphate-buffered salin (PBS), and replenished with 10% FBS media with or without FAK inhibitor (1 μM). Time-lapse series was obtained by acquiring images at 10 min intervals for up to 22 h, at 37° C. with humidity and CO2 regulation using a 10× objective on an automated stage (Olympus IX81). Cell trajectories and distance traveled were measured by tracking nucleus position over time using Image J.

4T1 tumors = assay: Orthotopic 4T1 breast carcinoma model (breast fat pad)
Procedure: Immunohistochemistry: For the detection of apoptosis, sections (7 μm) were analyzed using a terminal deoxynucleotidyl transferase dUTP nick end labeling (TUNEL) kit (Roche). For CD45 staining, sections (7 μm) were fixed in 4% paraformaldehyde, rinsed in PBS, and blocked with a solution of PBS containing 5% BSA, 1% goat serum and 0.1% Triton X. FITC-conjugated anti-CD45 antibodies (Invitrogen) at 1 μg/ml in 5% BSA and PBS were incubated for 2 hours. FITC-conjugated IgG2b isotype antibodies (Invitrogen) at the same concentration were used as a negative control. […] Images were sequentially captured at 40× (UPLFL objective, 1.3 NA; Olympus) using a monochrome charge-coupled camera (ORCA ER; Hamamatsu), an inverted microscope (IX51; Olympus), and Slidebook software (v5.0, Intelligent Imaging). Images were pseudo-colored, overlaid, and merged using Photoshop CS3 (Adobe). Fluorescence quantitation was performed using Image J (v1.43).
Orthotopic breast cancer models: One million 4T1 or MDA-MB-231 cells in 10 μl PBS were injected into the T4 mammary fat pad of 8-10 week old mice using a Hamilton syringe. […] Tumors were measured every 3-4 days with digital vernier calipers and tumor volume (mm^3) was calculated using the formula: V=axb^2/2 (a=length, mm; b=width, m) Body weight was measured weekly to assess toxicity. Lungs, spleen, and primary tumors were surgically removed and weighed.
For 4T1 tumor metastasis analyses, lungs were rinsed in PBS, dorsal and ventral fluorescent images acquired using the OV100 Small Animal Imaging System (Olympus). For all images, a common threshold for mCherry fluorescence was set and lung metastatic burden was calculated by determining the average integrated pixel density for micro-tumors present in each lung using Image J software. Metastatic tumor burden (number of metastatic lesion or mean pixel volume) was determined and groups (Negligible, Moderate, and High) were separated based upon numbers distribution. After imaging, lungs were fixed in Bouin's solution (Sigma), paraffin embedded, sectioned, and stained with hematoxylin and eosin (H&E) for histological evaluation. Images were acquired using a differential interference contrast-equipped Olympus IX81 inverted microscope and an Olympus DP71 digital color camera using Slidebook (v5.0) software. […] Lungs were resected, embedded in OCT, and frozen in liquid nitrogen.

4T1 cells [2] = assay: 3D spheroid size assay; type: cell-based, murine; conditions: 72 h
Procedure: (§2) Anchorage-dependent, spheroid, and soft agar cell growth assays: Cells (2×10^5) were plated per 35 mm well under adherent (tissue culture-treated) and non-adherent conditions (poly-HEMA-coated) in 6-well plates (Costar) in growth media. Between 24 and 168 h, all cells were collected, a single cell suspension was prepared by limited trypsin-EDTA treatment, and viable cells were enumerated by trypan blue staining and counting (ViCell XR, Beckman). For spheroid area determination, cells were imaged after 72 h in phase contrast using an Olympus IX51 microscope. Area was calculated using Image J software (version 1.43). For soft agar assays, 48-well plates were coated with a 1:4 mix of 2% agar (EM Science) in 0.2 ml growth media (bottom layer). 5×10^4 cells were plated per well (in triplicate) in a mixture of 0.3% agar in 0.2 ml growth media (top layer). […] After 10 days, colonies were imaged in phase contrast, enumerated by counting 9 fields (3 fields per well), and total area determined using Image J. For all analyses, experimental points were performed in triplicate and were experiments were repeated at least two times.

4T1 cells [3] = assay: Annexin V binding by flow cytometry; type: cell-based, murine; conditions: 24 h
Procedure: (§3) Cell pellets were resuspended in 300 p. 1 of PBS containing propidium iodide (PI) (10 μg/ml), DNAse-free RNAse (100 μg/ml, Qiagen), and then incubated at 37° C. with agitation for 1 h. Samples were analyzed by flow cytometry (FACSCalibur, Becton-Dickinson) and cell cycle analyses were performed by ModFit LT3.2 software (Verity software house). Hypodiploid DNA content as a measure of cell apoptosis was detected by PI staining as described ^29. […] Quadrant gates were positioned based on cell autofluorescence (negative) staurosporine-treated (positive) controls. Apoptosis was calculated to be the percent of annexin V-positive cells. In the soft agar assays, apoptosis was quantified by visual inspection of at least 200 cells and was defined as the appearance of membrane blebbing or cell shrinkage. Apoptosis was also detected by appearance of cleaved caspase-3 antibody reactivity in protein lysates by immunoblotting.

4T1 cells [4] = assay: Time lapse scratch-wound closure motility assay; type: cell-based
Procedure: as §1

[5] = test system: interleukin-6 (IL-6) production in 4T1 cells; assay: IL-6 ELISA after TNFα stimulation; type: cell-based, murine; conditions: 0.25 to 1.0 μM; TNFα 10 ng/ml, 24 h
Procedure: After 1 h, recombinant tumor necrosis factor-α (TNFα eBioScience) was added (10 ng/ml) and after 24 h, IL-6 levels in conditioned media were measured using anti-mouse IL-6 ELISA kit (eBioScience).

MDA-MB-231 cells = assay: Apoptosis assay of suspended cells (annexin V, flow cytometry); type: cell-based, human; conditions: up to 10 μM, within 6 h
Procedure: Quadrant gates were positioned based on cell autofluorescence (negative) staurosporine-treated (positive) controls. Apoptosis was calculated to be the percent of annexin V-positive cells.

4T1 cells [6] = assay: Cell cycle analysis by propidium iodide staining and flow cytometry; type: cell-based, murine; conditions: 1.0 μM
Procedure: as §3

[7] = test system: FAK and p130Cas phosphorylation in 4T1 tumors; assay: Pharmacodynamic (PD) evaluation in subcutaneous 4T1 tumors, single i.p. injection; type: in vivo, Balb/c mice; conditions: for maximal plasma levels: single injection
4T1 cells [8] = assay: Adherent and suspended (non-adherent) cell growth, cell numbers; type: cell-based, murine
Procedure: as §2

[9] = 0.5 mg/ml ad libitum in drinking water
[10] = 150 mg/kg p.o. b.i.d. vs vehicle
[11] = 150 mg/kg p.o., b.i.d., 15 days
[12] = oral, 4T1 and MDA-MB-231 orthotopic models

CNC(=O)c1ccccc1Nc1cc(Nc2ccc(N3CCOCC3)cc2OC)ncc1C(F)(F)F [PND-1186]
inhibition at 0.4 µM (4T1 cells [1]): 50 to 60% | average concentration in plasma (4T1 tumors; [9]): 1.0 µM | average concentration in tumors (4T1 tumors; [9]): 0.52 µg/g | tumor growth and tumoral FAK-p130Cas phosphorylation (4T1 tumors; [9]): significantly decreased tumor growth and tumoral FAK-p130Cas phosphorylation | decrease in CD45 tumor-associated staining (4T1 tumors; 150 mg/kg): 2.8 fold | tumor vasculature (anti-CD31 staining) (4T1 tumors; 150 mg/kg p.o. b.i.d.): no major vascular differences | increase of TUNEL staining in breast fat pad tumors (4T1 tumors; [10]): 2.8 fold | tumor volume by Day 7 (4T1 tumors; [10]): significantly reduced tumor volume | reduction of final tumor weight (4T1 tumors; 150 mg/kg p.o. b.i.d., 16 days): 3.1 fold | total body weight (4T1 tumors; 150 mg/kg p.o. b.i.d., 16 days): without affects on total body weight | orthotopic and syngeneic breast carcinoma tumor growth and spontaneous metastasis to lungs (4T1 tumors; 150 mg/kg p.o. bid): significantly inhibited | lung metastases by H&E staining of lung sections (4T1 tumors; [11]): detectable 4T1 lung metastases in control but not PND-1186-treated mice | mice with high lung metastatic burden (4T1 tumors; [11]): no mice with a high metastatic burden | mice with negligible lung metastases (4T1 tumors; [11]): 7/12 | tumor histology (4T1 tumors; ad libitum PND-1186): necrotic regions at the tumor core, increased TUNEL staining, and decreased leukocyte infiltrate | FAK pY397 and p130Cas pY410 phosphorylation in primary tumors (4T1 tumors; ad libitum oral): sufficient to inhibit both FAK pY397 and p130Cas pY410 phosphorylation | mice with negligible to moderate lung metastatic burden (4T1 tumors; ad libitum oral): 13/15 | pY118 paxillin phosphorylation in tumors (4T1 tumors; ad libitum oral): inhibited pY118 paxillin phosphorylation | pY416 Src, pY402 Pyk2, pS473 Akt, pT308 Akt phosphorylation in tumors (4T1 tumors; ad libitum oral): not pY416 Src nor pY402 Pyk2, pS473 Akt, or pT308 Akt phosphorylation | spleen size (4T1 tumors; ad libitum oral): normal size | inhibition of final tumor mass (4T1 tumors; ad libitum oral, Day 22): > 1.8 fold | toxicity or weight loss (4T1 tumors; ad libitum oral, Day 22): without toxicity or weight loss | tumor-associated inflammatory cell infiltration and splenomegaly (4T1 tumors; mice with syngeneic 4T1 tumors): significantly decreased tumor-associated inflammatory cell infiltration and splenomegaly | tumor-associated splenomegaly (4T1 tumors; mouse, in vivo): reduced tumor-associated splenomegaly | anti-tumor and anti-metastatic effects (4T1 tumors; [12]): significant anti-tumor and anti-metastatic effects | tolerability of oral dosing (4T1 tumors; [12]): without animal morbidity, death or weight loss | spleen appearance (4T1 tumors; tumor-bearing PND-1186-treated mice): healthy and indistinguishable from non-treated, non-tumor bearing mice | reduction in average spheroid size (4T1 cells [2]; 0.1 μM): ~3 fold | concentration of maximal effect on spheroid size (4T1 cells [2]): 0.2 µM | annexin V positive staining, suspended cells (4T1 cells [3]; 0.1 to 0.4 μM): 50-60% | annexin V-positive cells, adherent conditions (4T1 cells [3]; up to 1.0 μM): did not increase | cell detachment or death (4T1 cells [4]; 1 μM over 22 h): No evidence of 4T1 cell detachment or death | wound closure (4T1 cells [4]; 1 μM, 22 h (DMSO 89%)): 40% | TNFα-triggered IL-6 release [5]: inhibited IL-6 release in a dose-dependent manner | MDA-MB-231 apoptosis in suspension (MDA-MB-231 cells): did not promote increased MDA-MB-231 apoptosis | cell cycle distribution, suspended cells (4T1 cells [6]): did not reveal cell cycle differences | cell cycle distribution, adherent cells (4T1 cells [6]; 72 h, vs DMSO): slight accumulation in the S and G2/M phases | sub-diploid (1N) cells, suspended cells (4T1 cells [6]; PI staining): accumulation of sub-diploid (1N) cells | duration of tumor FAK pY397 inhibition ([7]; 30 mg/kg i.p.): 3 to 6 h | maximal PND-1186 in tumors ([7]; 30 mg/kg i.p.): 0.75 µg/g | time to maximal PND-1186 in tumors ([7]; 30 mg/kg i.p.): ≤ 1 h | time to maximal plasma levels ([7]; 30 mg/kg i.p.): ≤ 15 min | plasma levels at 12 h ([7]; 30 mg/kg i.p., 12 h): 100 nM | tumor FAK pY397 phosphorylation at 12 h ([7]; 30 mg/kg i.p., 12 h): not significantly inhibited | tumor PND-1186 levels by 12 h ([7]; 30 mg/kg i.p., 12 h): 0.04 µg/g | maximal plasma levels ([7]; 30 mg/kg i.p.): 35 µM | time to maximal PND-1186 in tumors ([7]; 100 mg/kg i.p.): ≤ 1 h | time to maximal plasma levels ([7]; 100 mg/kg i.p.): ≤ 30 min | plasma levels at 12 h ([7]; 100 mg/kg i.p., 12 h): 1100 nM | p130Cas Tyr-410 phosphorylation (pY410Cas) in tumors ([7]; 100 mg/kg i.p., by 3 h): significantly reduced p130Cas Tyr-410 phosphorylation | sustained inhibition of tumor FAK Tyr-397 phosphorylation ([7]; 100 mg/kg i.p., for 12 h): > 60% | maximal plasma levels ([7]; 100 mg/kg i.p.): 117 µM | maximal PND-1186 in tumors ([7]; 100 mg/kg i.p., maintained up to 12 h): 16.1 µg/g | reduction of cell number, suspended cells (4T1 cells [8]; 0.1 μM, 72 h, vs DMSO): significant (p<0.001) | cell proliferation, FAK-Cas phosphorylation and cell death (4T1 cells [8]; 100 nM, colonies in soft agar or non-adherent conditions): inhibited cell proliferation, FAK-Cas phosphorylation, and induced cell death | total cell number, adherent cells (4T1 cells [8]; 1.0 μM, 72 h): decreased in number | total cell number, adherent cells (4T1 cells [8]; 0.1 to 1.0 μM, 24 or 48 h): no differences were observed | total cell number, suspended cells (4T1 cells [8]; all concentrations (0.1 to 1.0 μM), 48 h): reduced cell numbers | cytotoxicity to cells in culture (4T1 cells [8]; cells in culture): non-cytotoxic
